Test results taken from patent US20240425478A1, “CYCLOPENTYLPYRAZOLE CDK2 INHIBITORS” (Genentech, Inc., priority 2021, published 2024).
pIC50, pKi: −log10 of the molar value. Like-named read-outs stand apart in the source and are kept apart here.

Experiments:
[1] = molecular target: T1, Cyclin Dependent Kinase 1/Cyclin A2 (CDK1-cycA2) (Homo sapiens, UniProt P06493); assay: CDK1-cycA2 TR-FRET (Lance) enzyme assay; type: biochemical; details: Table O, enzymatic assay
T1 construct: purchased ProQinase 0134-0054-1
Summary of the method: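 Human CDK1/cyclin A2 pre-incubated 30 min with compound dose responses in 50 mM HEPES pH 7.5, 10 mM MgCl2, 2 mM TCEP, 0.05% BGG, 0.01% Brij 35. Reaction quenched with EDTA (15 mM final); TR-FRET readout using Eu-anti-phospho-4E-BP1, acceptor/donor ratio. Inhibition constants from Morrison equation.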

[2] = molecular target: T2, Cyclin Dependent Kinase 2/Cyclin E1 (CDK2-cycE1) (Homo sapiens, UniProt P24941); assay: CDK2-cycE1 TR-FRET (LANCE) enzyme assay; type: biochemical; details: for FS CDK1/CDK2 / FS CDK4/CDK2: fold selectivity; for increased fold-selectivity CDK4/CDK2 over Comparator C: (+) sign after FS CDK4/CDK2;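 as to improvement in potency against CDK2 (Ki) over Comparator C: fold lower CDK2 Ki than comparator c (Ki 0.032 µM)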
T2 construct: purchased ProQinase 0050-0055-1
Summary of the method: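 Compound dose responses pre-incubated 30 min with CDK2-cycE1 in 50 mM HEPES pH 7.5, 10 mM MgCl2, 2 mM TCEP, 0.05% BGG, 0.01% Brij 35. Reaction quenched with EDTA (15 mM final), phospho-MBP detected by Eu-anti-phospho-MBP TR-FRET (acceptor/donor ratio). Inhibition constants from Morrison equation.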

[3] = molecular target: T3, Cyclin Dependent Kinase 4/Cyclin D3 (CDK4-cycD3) (Homo sapiens, UniProt P11802); assay: CDK4-cycD3 TR-FRET (LANCE) enzyme assay; type: biochemical; details: Table O, enzymatic assay
T3 construct: purchased Carna Biosciences 04-105
Summary of the method: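 Compound dose responses pre-incubated 30 min with enzyme mix in 50 mM HEPES pH 7.5, 10 mM MgCl2, 2 mM TCEP, 0.05% BGG, 0.01% Brij 35. Reaction quenched with EDTA (15 mM final); Eu-anti-phospho-4E-BP1 TR-FRET detection, acceptor/donor ratio. Ki derived by Morrison equation.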

[4] = tested on: OVISE (JCRB1043, CCNE1-amplified); assay: OVISE EdU incorporation cell proliferation assay (CDK2-dependent); type: cell-based; details: for pIC50: cellular assay, read-out: CDK2 OVISE IC50; for FS SKOV-3/OVISE / FS p-H3/OVISE: fold selectivity; for FS p-H3/OVISE: cellular p-H3 IC50 over OVISE IC50; for increased fold-selectivity SKOV-3/OVISE over Comparator C: (+) sign after FS SKOV-3/OVISE; for improvement in CDK2 OVISE cell potency over Comparator C: in brackets after OVISE IC50, Comparator C 5.5 μM
Summary of the method: (§1)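 Cells in RPMI/10% FBS dosed with compound (0.5% DMSO final) for 16 h at 37 °C, 5% CO2, then EdU 0.5 μM final for 8 h before fixation and imaging. IC50 from 4-parameter logistic fit of EdU-positive cell fraction versus dose.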

SKOV-3 (ATCC HTB-77) = assay: SKOV-3 EdU incorporation cell proliferation assay (CDK4/6-dependent); type: cell-based; details: Homo sapiens, cellular assay, read-out: CDK4/6 SKOV-3 IC50
Summary of the method: as §1

HCT116 cells = assay: p-H3 HCT-116 mitotic release cell proliferation assay (cellular CDK1); type: cell-based; details: Homo sapiens, HCT-116; Table O, cellular assay; read-out: CDK1 p-H3 IC50
Summary of the method: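 HCT116 cells arrested 16 h with 500 nM nocodazole, then exposed to compound for 4 h at 37 °C (0.1% DMSO). Lysates read by HTRF/FRET with donor and acceptor phospho-Histone H3 (Ser10) antibodies, ≥2 h at room temperature; CDK1 inhibition seen as loss of p-H3 on mitotic release.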

[5] = Table O, enzymatic assay, read-out: CDK2 Ki
[6] = Table O, enzymatic CDK1 Ki over CDK2 Ki
[7] = Table O, enzymatic CDK4 Ki over CDK2 Ki
[8] = Table Q, enzymatic assay, read-out: CDK2 Ki
[9] = Table O, cellular SKOV-3 IC50 over OVISE IC50

T3 sequence (P11802 whole entry): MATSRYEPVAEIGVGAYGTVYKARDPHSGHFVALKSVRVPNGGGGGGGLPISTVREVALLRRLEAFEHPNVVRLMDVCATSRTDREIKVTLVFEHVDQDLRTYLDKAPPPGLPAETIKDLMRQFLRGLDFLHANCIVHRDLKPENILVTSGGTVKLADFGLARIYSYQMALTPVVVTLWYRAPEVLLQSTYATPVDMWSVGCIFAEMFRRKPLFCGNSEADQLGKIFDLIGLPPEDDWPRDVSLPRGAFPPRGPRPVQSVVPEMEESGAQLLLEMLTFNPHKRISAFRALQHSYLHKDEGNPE
T3 sequence (P30281 whole entry partner): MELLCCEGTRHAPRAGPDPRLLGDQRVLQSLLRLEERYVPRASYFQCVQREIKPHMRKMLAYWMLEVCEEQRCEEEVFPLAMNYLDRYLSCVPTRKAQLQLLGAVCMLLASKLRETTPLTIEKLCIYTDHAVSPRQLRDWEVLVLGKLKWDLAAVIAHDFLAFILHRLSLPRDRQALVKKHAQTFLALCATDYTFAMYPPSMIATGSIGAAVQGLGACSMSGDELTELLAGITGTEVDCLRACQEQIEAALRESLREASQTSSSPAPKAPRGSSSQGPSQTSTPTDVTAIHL
T1 sequence (P06493 whole entry): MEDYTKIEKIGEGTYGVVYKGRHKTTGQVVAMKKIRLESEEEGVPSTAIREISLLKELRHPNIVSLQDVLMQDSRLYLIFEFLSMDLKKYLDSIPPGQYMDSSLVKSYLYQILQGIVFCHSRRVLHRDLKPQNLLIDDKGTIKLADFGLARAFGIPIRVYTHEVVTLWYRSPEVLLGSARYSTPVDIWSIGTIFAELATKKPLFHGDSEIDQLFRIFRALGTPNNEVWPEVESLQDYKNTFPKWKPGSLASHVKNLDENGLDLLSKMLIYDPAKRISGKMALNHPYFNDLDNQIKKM
T1 sequence (P20248 whole entry partner): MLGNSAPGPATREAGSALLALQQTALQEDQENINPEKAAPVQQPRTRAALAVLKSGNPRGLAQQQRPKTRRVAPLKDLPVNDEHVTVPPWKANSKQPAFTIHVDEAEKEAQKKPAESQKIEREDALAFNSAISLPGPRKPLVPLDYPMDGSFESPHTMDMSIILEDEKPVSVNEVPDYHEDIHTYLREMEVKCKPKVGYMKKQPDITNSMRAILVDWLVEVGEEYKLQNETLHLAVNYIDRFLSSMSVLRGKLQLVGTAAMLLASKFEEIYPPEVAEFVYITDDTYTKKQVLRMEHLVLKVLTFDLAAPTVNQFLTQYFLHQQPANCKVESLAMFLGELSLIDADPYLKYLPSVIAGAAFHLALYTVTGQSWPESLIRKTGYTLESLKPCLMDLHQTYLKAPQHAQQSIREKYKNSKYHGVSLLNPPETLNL

COc1nccc(Nc2cc([C@H]3CC[C@@H](OC(=O)NC(C)C)C3)[nH]n2)n1 [Example 2F, (1R,3S)-3-(3-((2-methoxypyrimidin-4-yl)amino)-1H-pyrazol-5-yl)cyclopenty1 isopropylcarbamate]
pKi [1]: 7.96
improvement in potency against CDK2 (Ki) over Comparator C [2]: 78 fold
pKi [2, 5]: 9.39
FS CDK1/CDK2 [2, 6]: 21
FS CDK4/CDK2 [2, 7]: 270
increased fold-selectivity CDK4/CDK2 over Comparator C ([2]; Table Q): (+) (The (+) sign in Table Q signifies desirable increased fold-selectivity of the exemplary compounds over Comparator C)
pKi [2, 8]: 9.39
FS CDK1/CDK2 ([2]; Table Q, enzymatic): 21
FS CDK4/CDK2 ([2]; Table Q, enzymatic): 270
pKi ([2]; read-out: CDK2 activity / potency (enzymatic assay)): ≥ 9.00
pKi [3]: 6.72
pIC50 ([4]; Table O): 7.19
FS SKOV-3/OVISE [4, 9]: 58
FS p-H3/OVISE ([4]; Table O): 1.3
increased fold-selectivity SKOV-3/OVISE over Comparator C ([4]; Table Q): (+) (The (+) sign in Table Q signifies desirable increased fold-selectivity of the exemplary compounds over Comparator C)
FS SKOV-3/OVISE ([4]; Table Q, cellular): 58
improvement in CDK2 OVISE cell potency over Comparator C ([4]; Table Q): 84.6 fold
pIC50 (SKOV-3 (ATCC HTB-77); SK-OV-3, Table O): 5.46
pIC50 (SKOV-3 (ATCC HTB-77); SK-OV-3, Table Q): 5.46
pIC50 (HCT116 cells): 7.12

Cc1nccc(Nc2cc([C@H]3CC[C@@H](OC(=O)NC(C)C)C3)[nH]n2)n1 [Example 2O, (1R,3S)-3-(3-((2-methylpyrimidin-4-yl)amino)-1H-pyrazol-5-yl)cyclopenty1 isopropylcarbamate]
pKi [1]: 7.62
improvement in potency against CDK2 (Ki) over Comparator C [2]: 37 fold
pKi [2, 5]: 9.06
FS CDK1/CDK2 [2, 6]: 28
FS CDK4/CDK2 [2, 7]: 290
increased fold-selectivity CDK4/CDK2 over Comparator C ([2]; Table Q): (+) (The (+) sign in Table Q signifies desirable increased fold-selectivity of the exemplary compounds over Comparator C)
pKi [2, 8]: 9.06
FS CDK1/CDK2 ([2]; Table Q, enzymatic): 28
FS CDK4/CDK2 ([2]; Table Q, enzymatic): 290
pKi [3]: 6.60
pIC50 ([4]; Table O): 7.15
FS SKOV-3/OVISE [4, 9]: 56
FS p-H3/OVISE ([4]; Table O): 0.31
increased fold-selectivity SKOV-3/OVISE over Comparator C ([4]; Table Q): (+) (The (+) sign in Table Q signifies desirable increased fold-selectivity of the exemplary compounds over Comparator C)
FS SKOV-3/OVISE ([4]; Table Q, cellular): 56
improvement in CDK2 OVISE cell potency over Comparator C ([4]; Table Q): 78.6 fold
pIC50 (SKOV-3 (ATCC HTB-77); SK-OV-3, Table O): 5.41
pIC50 (SKOV-3 (ATCC HTB-77); SK-OV-3, Table Q): 5.41
pIC50 (HCT116 cells): 7.66
